Patent US20160137639A1, “TRIAZOLE-ISOXAZOLE COMPOUND AND MEDICAL USE THEREOF” (JAPAN TOBACCO INC., priority 2012, published 2016)
Like-named read-outs stand apart in the source and are kept apart here.

Experiments:
human RORγ = molecular target: T1, human RORγ (Homo sapiens, UniProt P51449); test: Luciferase reporter gene assay of inhibitory effect against RORγ transcriptional activity (GAL4-hRORγ plasmid in CHO cells); assay type: cell-based
T1 construct: human, NM_005060.3 and from Ser253 to Lys518; expressed in transfected cells; host or cells: CHO cells (transient co-transfection with pG5-Luc reporter)
T1 sequence (P51449 253-518): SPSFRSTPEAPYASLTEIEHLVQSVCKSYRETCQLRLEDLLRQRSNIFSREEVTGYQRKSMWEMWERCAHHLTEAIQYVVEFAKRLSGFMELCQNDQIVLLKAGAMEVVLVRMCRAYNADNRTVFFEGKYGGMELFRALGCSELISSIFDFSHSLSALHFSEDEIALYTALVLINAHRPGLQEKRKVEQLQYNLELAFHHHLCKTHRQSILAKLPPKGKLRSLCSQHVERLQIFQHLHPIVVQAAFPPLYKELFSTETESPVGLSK
Method: (§1) In vitro assay of inhibitory effect against RORγ transcriptional activity
(§2) Inhibitory effect of test article on transcriptional activity of RORγ was measured by means of the following luciferase reporter gene assay.
(§3) A cDNA encoding human and mouse RORγ ligand binding domain (LBD) were obtained based on the reported sequences (Genebank accession number and sequence: human, NM_005060.3 and from Ser253 to Lys518; mouse, NM_011281.2 and from Ile251 to Lys516).
(§4) The cDNA of human RORγ or mouse RORγ was inserted into pFA-CMV vector (Strategene), which expresses GAL4-DNA binding domain fusion protein.
(§5) The resulting plasmids are hereinafter referred to as GAL4-hRORγ plasmid and GAL4-mRORγ plasmid, respectively.
(§6) Human or mouse GAL4-RORγ plasmid was transiently co-transfected into Chinese hamster ovary cells (CHO cells) with […] plasmid, a reporter plasmid expressing firefly luciferase depending on GAL4.
(§7) TransIT CHO transfection reagent (Mirus) was used to co-transfect human or mouse GAL4-RORγ plasmid into CHO cells with pG5-Luc plasmid.
(§8) One day before the assay, CHO cells were suspended in HAM F-12 Nutrient medium containing 10 v/v % fetal bovine serum and seeded at 6×10^6 cells per 175 cm^2 cell culture flask.
(§9) Fifty four micro litters of Transit-CHO reagent was added into a 15 ml tube containing 1.16 ml of HAM F-12 Nutrient medium without fetal bovine serum and incubated at room temperature for 10 min.
A total 36 uL plasmid solution containing the GAL4-hRORγ plasmid (400 ng), pG5-Luc plasmid (9000 ng) and pcDNA3 plasmid (8600 ng) were added into the tube and mixed gently.
(§10) The mixture was incubated at room temperature for 10 min.
(§11) Nine micro litters of CHO Mojo Reagent was then added into each tube and mixed gently. The mixture was incubated at room temperature for 10 min.
(§12) The resultant transfection reagent was applied to the cell culture.
(§13) After incubation at 37° C., 5% CO2 for 4 hr, the transfected CHO cells were harvested by a trypsin treatment.
(§14) The collected cells were resuspended in HAM F-12 Nutrient medium supplemented with 10 v/v % fetal bovine serum and plated into a 384-well-white plate at 8,000 cells/50 uL/well.
(§15) The plate was incubated at room temperature for 1 hour and then further incubated at 37° C., 5% CO2 for 3 hours.
(§16) The test articles were dissolved in dimethylsulfoxide (DMSO) to obtain a concentration of 10 mmol/L. The resulting solution was diluted with the medium just before use and added to the cells in the plate to prepare 8 different concentrations of the test article.
(§17) The final concentration of DMSO was 0.1 v/v % After the addition of the test articles, the cells were incubated at 37° C., 5% CO2 for 2 days.
(§18) RORγ transcriptional activity was detected as the intracellular luciferase activity using SteadyLite HTS Reporter Gene Assay System (Perkin Elmer).
(§19) StedyLite Reagent was diluted five-fold into a solution containing 10 mM Tricine, 0.2% w/v BSA, 0.02% v/v Tween-20 to obtain the luciferase substrate solution.
(§20) After the measurement of the cell viability using Resazurin, the culture media in the 384 well-plate were removed. Then the Luc substrate solution was added into each well.
(§21) After the incubation at room temperature for 10 minutes, luminescence of each well was measured by a microplate reader.
(§22) The luciferase activity derived from the luminescence count in the vehicle-control well treated with 0.1% DMSO alone was defined as 100%, and the luciferase activity in the test article was calculated as a percentage (%-of-control) based on the value of the vehicle-control.
(§23) EC50 value of test article was calculated by curve fitting with GraphPad Prism.
(§24) The luminescence counts at the concentration of the test article where the cytotoxicity was observed were excluded from the data analysis.

mouse RORγ = molecular target: T2, mouse RORγ (Mus musculus, UniProt P51450); test: Luciferase reporter gene assay of inhibitory effect against RORγ transcriptional activity (GAL4-mRORγ plasmid in CHO cells); assay type: cell-based
T2 construct: mouse, NM_011281.2 and from Ile251 to Lys516; expressed in transfected cells; host or cells: CHO cells (transient co-transfection with pG5-Luc reporter)
T2 sequence (P51450 251-516): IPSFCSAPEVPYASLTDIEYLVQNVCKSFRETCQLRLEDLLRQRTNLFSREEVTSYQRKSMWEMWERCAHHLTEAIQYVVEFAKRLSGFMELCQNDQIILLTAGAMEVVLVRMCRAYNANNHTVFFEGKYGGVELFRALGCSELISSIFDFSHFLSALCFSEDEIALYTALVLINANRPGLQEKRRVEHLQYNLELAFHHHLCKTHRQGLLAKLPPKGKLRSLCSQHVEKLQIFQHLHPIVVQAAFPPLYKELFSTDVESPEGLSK
Method: as §1, §2, §3, §4, §5, §6, §7, §8, §9, §10, §11, §12, §13, §14, §15, §16, §17, §18, §19, §20, §21, §22, §23, §24

SMILES	EC50 (human RORγ; read-out: LUC EC50 (μM) hRORg) [µM]	EC50 (mouse RORγ; read-out: LUC EC50 (μM) mRORg) [µM]	EC50 (human RORγ; read-out: LUC EC50 hRORg) [µM]	EC50 (mouse RORγ; read-out: LUC EC50 mRORg) [µM]
Cc1ccc(NC(=O)C[C@H](CCC(=O)O)c2noc(-c3noc(CC(C)C)c3C)c2C2CC2)c(Cl)c1 [Example E-29]	< 3	< 3	–	–
CNC(=O)C(C)(C)CCc1nnc(CCC(=O)Nc2cccc(Cl)c2C)n1C1CC1 [Example F-231]	> 3	> 3	–	–
Cc1ccc(NC(=O)[C@H]2CC(F)(F)C[C@@H]2c2nnc(-c3cc(CC(C)C)on3)n2C2CC2)c(C)c1 (racemic) [Example F-570]	–	–	< 3	> 3
Cc1ccc(NC(=O)CC(CC(=O)O)c2nnc([C@H]3C[C@@H](CC(C)C)C3)n2C2CC2)c(C)c1 (mixture of isomers) [Example F-499]	–	–	> 3	< 3
COC1C[C@H](C(=O)Nc2ccc(C)cc2C)[C@@H](c2nnc([C@H]3C[C@@H](CC(C)C)C3)n2C2CC2)C1 (single isomer, unassigned) [Example F-556]	–	–	< 3	< 3
Cc1ccc(NC(=O)CCc2nnc(C3(O)CC(CC(C)C)C3)n2C2CC2)c(C)c1 (single isomer, unassigned) [Example F-429]	< 3	< 3	–	–
CC(C)CCc1nnc(CCC(=O)NC2CCCCC2C)n1C1CC1 (stereo not drawn) [Example F-102]	> 3	> 3	–	–
CC(C)C(F)(F)c1cc(-c2onc([C@@H](CCC(=O)O)CC(=O)Nc3ccc(F)cc3Cl)c2C2CC2)no1 [Example E-61]	< 3	< 3	–	–
Cc1ccc(NC(=O)C[C@H](CCC(=O)O)c2noc(-c3cn(CCC(C)(C)C)nc3C(F)(F)F)c2C2CC2)c(F)c1 [Example E-19]	> 3	> 3	–	–
Cc1ccc(NC(=O)C[C@H](CCCO)c2noc(-c3cn(CCC(C)(C)C)nc3C(F)(F)F)c2C2CC2)c(F)c1 [Example F-705]	–	–	> 3	> 3
COc1cc(C)ccc1CNC(=O)CCc1nnc(CCC(C)C)n1C1CC1 [Example F-148]	< 3	< 3	–	–
Cc1ccc(NC(=O)C[C@H](Cc2noc(=O)[nH]2)c2noc([C@H]3C[C@@H](CC(C)C)C3)c2C2CC2)c(C)c1 [Example F-640]	–	–	< 3	< 3
Cc1ccc(NC(=O)C[C@H](CCC(=O)O)c2noc(-c3csc(CC(C)C)n3)c2C2CC2)c(Cl)c1 [Example E-36]	> 3	< 3	–	–
Cc1c(Cl)cccc1NC(=O)CCc1nnc(CCn2cccn2)n1C1CC1 [Example F-172]	> 3	> 3	–	–
CC(=O)N1C[C@H](C(=O)Nc2ccc(C)cc2C)[C@@H](c2nnc(C3CN(C(=O)N(C)C(C)C)C3)n2C2CC2)C1 (racemic) [Example F-419]	> 3	> 3	–	–
COc1cc(F)ccc1CNC(=O)CCc1nnc(CCC(C)C)n1C1CC1 [Example F-229]	> 3	> 3	–	–
CCn1c(CCC(=O)Nc2ccc(C)cc2C)nnc1CCC(C)C [Example F-51]	> 3	> 3	–	–

SMILES	EC50 (human RORγ; read-out: LUC EC50 (μM) hRORg) [µM]	EC50 (mouse RORγ; read-out: LUC EC50 (μM) mRORg) [µM]	EC50 (human RORγ; read-out: LUC EC50 hRORg) [µM]	EC50 (mouse RORγ; read-out: LUC EC50 mRORg) [µM]
CC(=O)N1C[C@H](C(=O)Nc2cc(C)ccc2C)[C@@H](c2nnc(CCCC(C)(C)C)n2C2CC2)C1 (racemic) [Example F-331]	< 3	< 3	–	–
CCn1c(C(O)CC(=O)Nc2cccc3ccccc23)nnc1C1Cc2ccccc2C1 (racemic) [Example F-34]	> 3	> 3	–	–
CC(C)(C)C[C@H]1C[C@@H](c2noc([C@@H](CCC(=O)O)CC(=O)Nc3ccc(Cl)cc3F)c2C2CC2)C1 [Example F-717]	–	–	< 3	< 3
CCn1c(CCC(=O)NCc2ccccc2)nnc1C1Cc2ccccc2C1 [Example F-22]	> 3	> 3	–	–
Cc1ccc(NC(=O)C[C@H](CCO)c2nnc(-c3cc(CC(C)(C)C)on3)n2C2CC2)c(C)c1 [Example F-612]	–	–	< 3	< 3
Cc1cccnc1CNC(=O)CCc1nnc(CCC(C)C)n1C1CC1 [Example F-110]	> 3	> 3	–	–
Cc1ccc(NC(=O)[C@@H](CC(=O)O)Cc2noc([C@H]3C[C@@H](CC(C)C)C3)c2C2CC2)c(C)c1 [Example F-668]	–	–	> 3	< 3
CC(C)n1c(CCC(=O)Nc2cccc3ccccc23)nnc1C1Cc2ccccc2C1 [Example F-6]	> 3	> 3	–	–
Cc1ccc(NC(=O)C[C@H](CCCO)c2noc([C@H]3C[C@@H](CC(C)(C)C)C3)c2C2CC2)c(C)n1 [Example F-689]	–	–	< 3	< 3
Cc1ccc(NC(=O)[C@H](CCC(=O)O)Cc2noc([C@H]3C[C@@H](CC(C)(C)C)C3)c2C2CC2)c(Cl)c1 [Example F-683]	–	–	< 3	< 3
Cc1ccc(NC(=O)[C@H]2CN(CC(C)C)C[C@@H]2c2nnc([C@H]3C[C@@H](CC(C)C)C3)n2C2CC2)c(C)c1 [Example F-596]	–	–	< 3	< 3
COc1cc(C)ccc1CNC(=O)CCc1nnc(CCC2(C)CCCCC2)n1C1CC1 [Example F-270]	< 3	< 3	–	–
Cc1ccc(NC(=O)CC(CCC(N)=O)c2nnc(CCCC(C)C)n2C2CC2)c(C)c1 (racemic) [Example F-284]	> 3	> 3	–	–
Cc1ccc(NC(=O)C[C@H](CCC(=O)NS(C)(=O)=O)c2noc([C@H]3C[C@@H](CC(C)C)C3)c2C2CC2)c(C)c1 [Example F-636]	–	–	< 3	< 3
Cc1ccc(NC(=O)[C@H]2CN(C)CC[C@@H]2c2nnc([C@H]3C[C@@H](CC(C)C)C3)n2C2CC2)c(C)c1 (racemic) [Example F-583]	–	–	< 3	< 3
CC(C)CCc1nnc(CCC(=O)Nc2cc(F)cc(Cl)c2)n1C1CC1 [Example F-109]	> 3	> 3	–	–
